Assay results as given in publication PMC8808171, “Nonselective TRPC channel inhibition and suppression of aminoglycoside-induced premature termination codon readthrough by the small molecule AC1903” (The Journal of Biological Chemistry, 2022).

Biological target: T1, TRPC1:C4 (A498) (Homo sapiens, UniProt P48995+Q9UBN4)
T1 construct: endogenous in cells; host or cells: A498
Assay: [Ca2+]i recordings (Fura-2), endogenous TRPC1:C4 channels in A498 cells
Assay type: cell-based
Conditions: activator EA (100 nM)
Method: HEK T-REx cells expressing tetracycline-inducible TRPC4, TRPC5, TRPC5–C1,TRPC4–C1, and hPiezo1 have been described previously ([46], [57], [59], [78]). Cloning of TRPC3 has been described previously ([79]). To create cells stably expressing tetracycline-inducible TRPC3, HEK T-REx cells were transfected with pcDNA4/TO/hTRPC3 using jetPRIME transfection reagent (VWR) according to manufacturer’s instructions. After 48 h cells were put under antibiotic selection using 400 μg/ml zeocin and 10 μg/ml Blasticidin S (Invivogen)). Medium changes were carried out every 2 to 3 days to remove dead cells. Inducible HEK T-REx cells were cultured in Dulbecco’s modified Eagle medium GlutaMAX (Thermo Fisher Scientific) containing 10% fetal bovine serum (FBS; Merck), penicillin-streptomycin (100 units ml^−1/100 μg ml^−1), with the addition of blasticidin (10 μg ml^1; Invivogen) and zeocin (Invivogen) at either 400 μg ml^−1 (TRPC cell lines) or 200 μg ml^−1 (hPiezo1) to maintain the stable incorporation of the tetracycline repressor and the channel of interest, respectively. Expression of tetracycline-inducible proteins was induced by the addition of tetracycline (TRPC cell lines: 1 μg ml^−1, hPiezo1: 100 ng ml^−1; 24 h) to cell culture medium. […]
For Ca^2+ recording, electrophysiology, and cell viability experiments, data were analyzed using GraphPad Prism 9.0. […]

T1 sequence (Q9UBN4 whole entry): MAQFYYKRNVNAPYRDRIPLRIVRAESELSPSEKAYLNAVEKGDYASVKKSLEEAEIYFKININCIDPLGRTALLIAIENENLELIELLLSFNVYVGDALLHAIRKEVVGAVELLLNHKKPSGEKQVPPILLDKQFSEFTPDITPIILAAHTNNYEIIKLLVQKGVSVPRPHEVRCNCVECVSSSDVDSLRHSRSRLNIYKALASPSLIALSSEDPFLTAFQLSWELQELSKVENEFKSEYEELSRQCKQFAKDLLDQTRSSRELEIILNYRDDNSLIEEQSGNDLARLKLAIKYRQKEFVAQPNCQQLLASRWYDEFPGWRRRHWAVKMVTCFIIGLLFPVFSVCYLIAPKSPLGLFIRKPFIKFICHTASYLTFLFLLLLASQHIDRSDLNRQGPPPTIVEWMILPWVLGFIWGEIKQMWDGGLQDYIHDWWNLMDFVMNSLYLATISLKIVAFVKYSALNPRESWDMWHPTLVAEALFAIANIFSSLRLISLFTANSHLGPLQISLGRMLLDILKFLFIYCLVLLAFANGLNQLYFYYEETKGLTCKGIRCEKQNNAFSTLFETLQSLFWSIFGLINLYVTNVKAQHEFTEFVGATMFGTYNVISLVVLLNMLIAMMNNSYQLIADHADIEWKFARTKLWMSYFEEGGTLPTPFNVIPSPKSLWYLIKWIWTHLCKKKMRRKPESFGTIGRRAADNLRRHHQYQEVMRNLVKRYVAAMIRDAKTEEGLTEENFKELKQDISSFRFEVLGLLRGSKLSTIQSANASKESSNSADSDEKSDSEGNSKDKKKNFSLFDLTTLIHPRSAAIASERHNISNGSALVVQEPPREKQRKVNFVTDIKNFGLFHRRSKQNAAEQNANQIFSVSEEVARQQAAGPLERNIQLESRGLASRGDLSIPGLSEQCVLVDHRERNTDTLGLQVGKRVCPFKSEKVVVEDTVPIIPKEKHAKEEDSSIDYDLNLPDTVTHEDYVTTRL
T1 sequence (P48995 whole entry): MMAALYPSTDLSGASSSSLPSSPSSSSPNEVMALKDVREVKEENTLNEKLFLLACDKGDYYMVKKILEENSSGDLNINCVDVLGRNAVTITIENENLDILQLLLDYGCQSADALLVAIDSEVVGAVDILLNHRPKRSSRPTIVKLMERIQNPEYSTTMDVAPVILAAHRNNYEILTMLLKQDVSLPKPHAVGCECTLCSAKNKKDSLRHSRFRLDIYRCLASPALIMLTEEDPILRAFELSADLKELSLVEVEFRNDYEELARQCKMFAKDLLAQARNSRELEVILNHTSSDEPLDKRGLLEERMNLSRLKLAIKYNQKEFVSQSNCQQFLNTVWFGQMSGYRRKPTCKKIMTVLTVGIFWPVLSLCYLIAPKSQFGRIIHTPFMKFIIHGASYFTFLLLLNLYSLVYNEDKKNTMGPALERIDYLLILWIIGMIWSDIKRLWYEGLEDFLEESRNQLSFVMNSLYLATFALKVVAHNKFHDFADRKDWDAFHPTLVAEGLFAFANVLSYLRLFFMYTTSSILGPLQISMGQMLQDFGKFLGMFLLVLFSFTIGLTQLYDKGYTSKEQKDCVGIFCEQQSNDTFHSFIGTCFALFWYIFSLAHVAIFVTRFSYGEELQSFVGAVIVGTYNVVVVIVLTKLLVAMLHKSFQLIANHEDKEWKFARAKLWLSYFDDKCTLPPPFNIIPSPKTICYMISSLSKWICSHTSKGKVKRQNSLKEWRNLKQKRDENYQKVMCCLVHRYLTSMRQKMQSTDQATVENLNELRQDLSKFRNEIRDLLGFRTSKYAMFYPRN

Hill slope (A498): -1.2
IC50 (A498 cells): 3.4 µM
Compound: c1ccc(Cn2c(NCc3ccco3)nc3ccccc32)cc1 [AC1903]
